Assay results from patent US7462600B2, “Macrolides” (Pfizer Inc, priority 2004, dated 2008).
≈ marks a conversion by molar mass, not a printed value.

Assays:
Format in all cases: cell-based
[1] = system: Streptococcus pyogenes 1079; experiment: MIC, microtiter broth dilution (NCCLS M100-S14), S. pyogenes 1079 (ermB); conditions: Streptococcus pyogenes 1079
Protocol: (§1) The assay described herein includes a panel of bacterial strains assembled to include a variety of target pathogenic species, including representatives of macrolide resistance mechanisms that have been characterized. In many cases, both the macrolide-susceptible parent strain and the macrolide-resistant strain derived from it are available to provide a more accurate assessment of the compound's ability to circumvent the resistance mechanism. The assay is performed in microtiter trays and interpreted according to Performance Standards for Antimicrobial Susceptibility Testing; 14th Informational Supplement (M100-S14), published by The National Committee for Clinical Laboratory Standards (NCCLS) guidelines; the MIC is used to compare strains. Compounds are initially dissolved in DMSO as 40 mg/ml stock solutions.

[2] = system: Streptococcus pneumoniae 1016; experiment: MIC, microtiter broth dilution (NCCLS M100-S14), S. pneumoniae 1016 (susceptible); conditions: Streptococcus pneumoniae 1016
Protocol: as §1

[3] = system: Streptococcus pneumoniae 1095; conditions: Streptococcus pneumoniae 1095; microtiter broth dilution
Protocol: as §1

[4] = system: Streptococcus pneumoniae 1175; conditions: Streptococcus pneumoniae 1175; microtiter broth dilution
Protocol: as §1

[5] = system: Haemophilus influenzae 1218; experiment: MIC, microtiter broth dilution (NCCLS M100-S14), H. influenzae 1218 (susceptible); conditions: Haemophilus influenzae 1218
Protocol: as §1

Row | SMILES | MIC S. pyogenes 1079 [1] [µg/mL] | MIC S. pneumo. 1016 [2] [µg/mL] | MIC S. pneumo. 1095 [3] [µg/mL] | MIC S. pneumo. 1175 [4] [µg/mL] | MIC H. influenzae 1218 [5] [µg/mL]
1 | CCC1OC(=O)C(C)C(=O)C(C)C(OC2OC(C)CC(N(C)C)C2O)C(C)(OC)CC(C)C(=O)C(C)C2N(CC3CN(Cc4ccnc5ccccc45)C3)C(=O)OC12C (centres unmarked) [4.13] | 32 (≈ 38.9 µM) | <0.06 | 0.5 (≈ 0.608 µM) | <0.06 | 1 (≈ 1.22 µM)
2 | CCC1OC(=O)C(C)C(=O)C(C)C(OC2OC(C)CC(N(C)C)C2O)C(C)(OC)CC(C)C(=O)C(C)C2N(CC3CN(Cc4cccc5ncccc45)C3)C(=O)OC12C (centres unmarked) [4.15] | 32 (≈ 38.9 µM) | <0.06 | <0.06 | <0.06 | 0.25 (≈ 0.304 µM)
3 | CCC1OC(=O)C(C)C(=O)C(C)C(OC2OC(C)CC(N(C)C)C2O)C(C)(OC)CC(C)C(=O)C(C)C2N(CC3CN(Cc4nc5ccccc5[nH]4)C3)C(=O)OC12C (centres unmarked) [4.16] | >64.00 | <0.06 | 2 (≈ 2.46 µM) | 0.25 (≈ 0.308 µM) | 0.5 (≈ 0.616 µM)
4 | CCC1OC(=O)C(C)C(=O)C(C)C(OC2OC(C)CC(N(C)C)C2O)C(C)(OC)CC(C)C(=O)C(C)C2N(CC3CN(Cc4cccc5nccnc45)C3)C(=O)OC12C (centres unmarked) [4.17] | 64 (≈ 77.7 µM) | <0.06 | 0.5 (≈ 0.607 µM) | 0.12 (≈ 0.146 µM) | 0.25 (≈ 0.303 µM)
5 | CCC1OC(=O)C(C)C(=O)C(C)C(OC2OC(C)CC(N(C)C)C2O)C(C)(OC)CC(C)C(=O)C(C)C2N(CC3CN(Cc4c[nH]c5cnccc45)C3)C(=O)OC12C (centres unmarked) [4.19] | 64 (≈ 78.8 µM) | <0.06 | <0.06 | 1 (≈ 1.23 µM) | 0.5 (≈ 0.616 µM)
6 | CCC1OC(=O)C(C)C(=O)C(C)C(OC2OC(C)CC(N(C)C)C2O)C(C)(OC)CC(C)C(=O)C(C)C2N(CC3CN(Cc4cccc5nc[nH]c45)C3)C(=O)OC12C (centres unmarked) [4.20] | 16 (≈ 19.7 µM) | <0.06 | 0.12 (≈ 0.148 µM) | 0.25 (≈ 0.308 µM) | 0.25 (≈ 0.308 µM)
7 | CCC1OC(=O)C(C)C(=O)C(C)C(OC2OC(C)CC(N(C)C)C2O)C(C)(OC)CC(C)C(=O)C(C)C2N(CC3CN(Cc4cnn(-c5cccc(F)c5)c4)C3)C(=O)OC12C (centres unmarked) [4.21] | 64 (≈ 74.8 µM) | <0.06 | 2 (≈ 2.34 µM) | <0.06 | 0.5 (≈ 0.584 µM)
8 | CCC1OC(=O)C(C)C(=O)C(C)C(OC2OC(C)CC(N(C)C)C2O)C(C)(OC)CC(C)C(=O)C(C)C2N(CC3CN(Cc4n[nH]c5ccccc45)C3)C(=O)OC12C (centres unmarked) [4.22] | 32 (≈ 39.4 µM) | <0.06 | 2 (≈ 2.46 µM) | 0.25 (≈ 0.308 µM) | 0.12 (≈ 0.148 µM)
9 | CCC1OC(=O)C(C)C(=O)C(C)C(OC2OC(C)CC(N(C)C)C2O)C(C)(OC)CC(C)C(=O)C(C)C2N(CC3CN(Cc4n[nH]c5cc(Cl)ccc45)C3)C(=O)OC12C (centres unmarked) [4.23] | 16 (≈ 18.9 µM) | <0.06 | 4 (≈ 4.73 µM) | 0.12 (≈ 0.142 µM) | <0.06
10 | CCC1OC(=O)C(C)C(=O)C(C)C(OC2OC(C)CC(N(C)C)C2O)C(C)(OC)CC(C)C(=O)C(C)C2N(CC3CN(Cc4ccc5cnccn45)C3)C(=O)OC12C (centres unmarked) [4.24] | 64 (≈ 78.8 µM) | <0.06 | 0.5 (≈ 0.616 µM) | <0.06 | 0.5 (≈ 0.616 µM)
11 | CCC1OC(=O)C(C)C(=O)C(C)C(OC2OC(C)CC(N(C)C)C2O)C(C)(OC)CC(C)C(=O)C(C)C2N(CC3CN(Cc4ccc5nccn5c4)C3)C(=O)OC12C (centres unmarked) [4.25] | 64 (≈ 78.8 µM) | <0.06 | 0.38 (≈ 0.468 µM) | 0.31 (≈ 0.382 µM) | 0.62 (≈ 0.764 µM)
12 | CCC1OC(=O)C(C)C(=O)C(C)C(OC2OC(C)CC(N(C)C)C2O)C(C)(OC)CC(C)C(=O)C(C)C2N(CC3CN(Cc4cnc5ncccn45)C3)C(=O)OC12C (centres unmarked) [4.26] | >64.00 | <0.06 | 2 (≈ 2.46 µM) | 2 (≈ 2.46 µM) | 0.25 (≈ 0.308 µM)
13 | CCC1OC(=O)C(C)C(=O)C(C)C(OC2OC(C)CC(N(C)C)C2O)C(C)(OC)CC(C)C(=O)C(C)C2N(CC3CN(Cc4cn5cccnc5n4)C3)C(=O)OC12C (centres unmarked) [4.27] | >64.00 | <0.06 | >64.00 | 4 (≈ 4.92 µM) | 1 (≈ 1.23 µM)
14 | CCC1OC(=O)C(C)C(=O)C(C)C(OC2OC(C)CC(N(C)C)C2O)C(C)(OC)CC(C)C(=O)C(C)C2N(CC3CN(Cc4cnc5cnccn45)C3)C(=O)OC12C (centres unmarked) [4.28] | >64.00 | <0.06 | 8 (≈ 9.84 µM) | 1 (≈ 1.23 µM) | 0.25 (≈ 0.308 µM)
15 | CCC1OC(=O)C(C)C(=O)C(C)C(OC2OC(C)CC(N(C)C)C2O)C(C)(OC)CC(C)C(=O)C(C)C2N(CC3CN(Cc4ccc5ccccc5c4)C3)C(=O)OC12C (centres unmarked) [4.29] | 16 (≈ 19.5 µM) | <0.06 | 2 (≈ 2.43 µM) | <0.06 | 0.12 (≈ 0.146 µM)
16 | CCC1OC(=O)C(C)C(=O)C(C)C(OC2OC(C)CC(N(C)C)C2O)C(C)(OC)CC(C)C(=O)C(C)C2N(CC3CN(Cc4ccn(-c5cccnc5)n4)C3)C(=O)OC12C.O=CO (centres unmarked) [4.30] | >64.00 | <0.06 | >64.00 | 0.25 | 0.5
17 | CCC1OC(=O)C(C)C(=O)C(C)C(OC2OC(C)CC(N(C)C)C2O)C(C)(OC)CC(C)C(=O)C(C)C2N(CC3CN(Cc4ccn(-c5ccccn5)n4)C3)C(=O)OC12C.O=CO (centres unmarked) [4.31] | >64.00 | <0.06 | 32 | <0.06 | 0.5
18 | CCC1OC(=O)C(C)C(=O)C(C)C(OC2OC(C)CC(N(C)C)C2O)C(C)(OC)CC(C)C(=O)C(C)C2N(CC3CN(C(=O)c4cccc5ncccc45)C3)C(=O)OC12C (centres unmarked) [4.32] | 64 (≈ 76.5 µM) | <0.06 | 0.5 (≈ 0.597 µM) | <0.06 | 1 (≈ 1.19 µM)
19 | CCC1OC(=O)C(C)C(=O)C(C)C(OC2OC(C)CC(N(C)C)C2O)C(C)(OC)CC(C)C(=O)C(C)C2N(CC3CN(C(=O)c4ccc5ncccc5c4)C3)C(=O)OC12C (centres unmarked) [4.33] | 64 (≈ 76.5 µM) | <0.06 | 1 (≈ 1.19 µM) | 0.25 (≈ 0.299 µM) | 1 (≈ 1.19 µM)
20 | CCC1OC(=O)C(C)C(=O)C(C)C(OC2OC(C)CC(N(C)C)C2O)C(C)(OC)CC(C)C(=O)C(C)C2N(CC3CN(C(=O)c4cnn5ccccc45)C3)C(=O)OC12C (centres unmarked) [4.35] | >64.00 | <0.06 | 1 (≈ 1.21 µM) | 0.12 (≈ 0.145 µM) | 1 (≈ 1.21 µM)
21 | CCC1OC(=O)C(C)C(=O)C(C)C(OC2OC(C)CC(N(C)C)C2O)C(C)(OC)CC(C)C(=O)C(C)C2N(CC3CN(Cc4cccc5cccnc45)C3)C(=O)OC12C.O=CO (centres unmarked) [4.36] | >64.00 | <0.06 | 0.25 | <0.06 | <0.06
22 | CCC1OC(=O)C(C)C(=O)C(C)C(OC2OC(C)CC(N(C)C)C2O)C(C)(OC)CC(C)C(=O)C(C)C2N(CC3CN(C(=O)c4ccnc5ccccc45)C3)C(=O)OC12C.O=CO (centres unmarked) [4.37] | >64.00 | <0.06 | 0.25 | <0.06 | 0.5
23 | CCC1OC(=O)C(C)C(=O)C(C)C(OC2OC(C)CC(N(C)C)C2O)C(C)(OC)CC(C)C(=O)C(C)C2N(CC3CN(C(=O)c4cnc5ccccc5c4)C3)C(=O)OC12C.O=CO (centres unmarked) [4.38] | >64.00 | <0.06 | 2 | <0.06 | 2
24 | CCC1OC(=O)C(C)C(=O)C(C)C(OC2OC(C)CC(N(C)C)C2O)C(C)(OC)CC(C)C(=O)C(C)C2N(CC3CN(C(=O)c4cc5ccccc5cn4)C3)C(=O)OC12C.O=CO (centres unmarked) [4.39] | >64.00 | <0.06 | 8 | <0.06 | 4
25 | CCC1OC(=O)C(C)C(=O)C(C)C(OC2OC(C)CC(N(C)C)C2O)C(C)(OC)CC(C)C(=O)C(C)C2N(CC3CN(C(=O)c4ccc5cccnc5n4)C3)C(=O)OC12C.O=CO (centres unmarked) [4.40] | >64.00 | <0.06 | 8 | 0.5 | 4
